Results on 1 molecule are retold here after US20210113529A1, “MEDICINE FOR PREVENTING OR TREATING OPHTHALMIC DISEASE ASSOCIATED WITH ENHANCED INTRAOCULAR NEOVASCULARIZATION AND/OR INTRAOCULAR VASCULAR PERMEABILITY” (KYOTO UNIVERSITY, priority 2018, published 2021).

Structures are written as SMILES.

Assay [1] deals with laser-induced choroidal neovascularization (CNV) model. Briefly: Laser-induced CNV model: fluorescein angiography (FA) grade. It is filed as in vivo, mice. Conditions: 0.03 mg/kg or 0.3 mg/kg orally once daily, each group; Day 14 after laser irradiation. As to the method:
A Mydrin-P ophthalmic solution (Santen Pharmaceutical Co., Ltd., Mydrin is a trademark) was dropped into the right eye of 8-week-old mice (Japan SLC, Inc., C56BL/6J strain) to cause mydriasis. A solution obtained by diluting a 7:1 mixed anesthetic solution of ketamine and xylazine 10-fold with physiological saline was administered at 10 mL/kg into the femoral muscle. After that, a 0.1% Hyalein (trademark) ophthalmic solution (Santen Pharmaceutical Co., Ltd.) was dropped into the eye so as to prevent the eyeball from drying. […]
Sampling was performed on the 14th day after the laser irradiation. The mice were anesthetized with 10 mL/kg of a solution obtained by diluting a 7:1 mixed anesthetic solution of ketamine and xylazine 10-fold with physiological saline, and then 0.1 mL of a 10-fold dilution of fluorescein (Alcon Japan Ltd.) was administered into the tail vein of the mice, followed by fluorescence fundus photography using Micron 4 (Phoenix Research Laboratories, Inc. Pleasanton, Calif., USA).
In FIG. 1 (a), Day 0 indicates images taken on the day of the laser irradiation, and Day 14 indicates images taken on the 14th day. In addition, for the image of each group on Day 14, an FA grade was determined for each laser irradiation site in accordance with grade criteria shown in Table 1 to evaluate the leakage of a fluorescent dye from a neovascularization site. […]

In assay [2] the test system is human retinal vascular endothelial cells (HRMECs). Briefly: Permeability of human retinal vascular endothelial cells (Transwell, FITC-dextran). It is filed as cell-based. The settings on record: HRMECs in Transwell; 0.3 nM, 3 nM or 30 nM; 60 minutes pre-culture, 60 minutes after FITC-dextran (40 kDa). As to the method: The upper chamber of Transwell (diameter: 6.5 mm, pore size: 0.4 μm: Corning Incorporated) coated with collagen and fibronectin was seeded with human retinal vascular endothelial cells (HRMECs) (Cell Systems) at a cell density of 5×10^4 cells/well, and the cells were cultured in Endothelial Cell Growth Medium MV 2 (PromoCell GmbH) under a 5% CO2 atmosphere at 37° C. for 6 days. Then, to the upper chamber and lower chamber of the Transwell, Compound 1 at a final concentration of 0 nM, 0.3 nM, 3 nM, or 30 nM, which had been prepared using 0.001% dimethyl sulfoxide-containing Endothelial Cell Growth Medium MV 2 as a vehicle, was added, and culture was continued. A well to which only the vehicle was added was used as a control. After 60 minutes of culture, 1 mg/mL of fluorescein isothiocyanate (FITC)-dextran (40 kDa: Sigma-Aldrich) was added to the upper chamber of the Transwell, and 60 minutes later, the fluorescence intensity of the medium in the lower chamber was measured to measure the amount of FITC-dextran permeating the lower chamber.

With `C[C@H](Oc1ccc(-c2nc(-c3ccc4[nH]cnc4c3)no2)cc1C(F)(F)F)C(F)(F)F.Cl` [Compound 1, 5-{5-[3-(trifluoromethyl)-4-{[(2S)-1,1,1-trifluoropropan-2-yl]oxy}phenyl]-1,2,4-oxadiazol-3-yl}-1H-benzimidazole monohydrochloride], in assay [1], the “FA grade as compared to the vehicle group” value was “significantly lowered”. The “amount of FITC-dextran permeating the lower chamber (fluorescence intensity)” value in assay [2] is given as “significantly decreased the amount of FITC-dextran permeating the lower chamber”.
